pIC50: −log10 of the molar value.
Biological target: T1, human αVβ6 (Homo sapiens, UniProt P06756+P18564)
T1 construct: purchased R & D systems 3817-AV
Assay: human αVβ6 HTRF binding assay
Conditions: recombinant human αVβ6 integrin, FITC-conjugated fibronectin
Experimental: All binding assays used the HTRF (homogeneous time resolved fluorescence) technology from Cisbio International, therefore all assays are described as HTRF binding assays. The assay results for the Examples are listed above together with the characterization data. The HTRF binding assays are established for the following integrins: human αVβ6, human αVβ1, human αVβ3, human αVβ5, and human αVβ8. All assays used the following assay buffer: 20 mM Tris, pH 7.4, 1 mM MgCl2, 1 mM MnCl2, 0.01% Tween 20, and 0.01% BSA. Alternatively, a SPA-based assay was used for evaluation of receptor binding.
The following describes the components and a representative procedure for the human αVβ6 HTRF binding assay: Recombinant human αVβ6 Integrin (R & D systems, 3817-AV) was biotinylated. Biotinylated human αVβ6 Integrin was added to assay vessel at a final concentration of 1.25 nM. FITC-conjugated fibronectin (Cytoskeleton, FNR02) was then added at the final concentration of 5 nM. The mixture was centrifuged at 600 rpm for three minutes using Thermo Fisher Heraeus Multifuge X3 centrifuge and then incubated at RT for an hour. Streptavidin Terbium (Cisbio international 610STLB) was then added at the final concentration of 0.625 nM. The resulting mixture was centrifuged at 600 rpm for three minutes using Thermo Fisher Heraeus Multifuge X3 centrifuge and then incubated at room temperature overnight in dark before reading HTRF signals.

T1 sequence (P06756 31-992 limits assumed): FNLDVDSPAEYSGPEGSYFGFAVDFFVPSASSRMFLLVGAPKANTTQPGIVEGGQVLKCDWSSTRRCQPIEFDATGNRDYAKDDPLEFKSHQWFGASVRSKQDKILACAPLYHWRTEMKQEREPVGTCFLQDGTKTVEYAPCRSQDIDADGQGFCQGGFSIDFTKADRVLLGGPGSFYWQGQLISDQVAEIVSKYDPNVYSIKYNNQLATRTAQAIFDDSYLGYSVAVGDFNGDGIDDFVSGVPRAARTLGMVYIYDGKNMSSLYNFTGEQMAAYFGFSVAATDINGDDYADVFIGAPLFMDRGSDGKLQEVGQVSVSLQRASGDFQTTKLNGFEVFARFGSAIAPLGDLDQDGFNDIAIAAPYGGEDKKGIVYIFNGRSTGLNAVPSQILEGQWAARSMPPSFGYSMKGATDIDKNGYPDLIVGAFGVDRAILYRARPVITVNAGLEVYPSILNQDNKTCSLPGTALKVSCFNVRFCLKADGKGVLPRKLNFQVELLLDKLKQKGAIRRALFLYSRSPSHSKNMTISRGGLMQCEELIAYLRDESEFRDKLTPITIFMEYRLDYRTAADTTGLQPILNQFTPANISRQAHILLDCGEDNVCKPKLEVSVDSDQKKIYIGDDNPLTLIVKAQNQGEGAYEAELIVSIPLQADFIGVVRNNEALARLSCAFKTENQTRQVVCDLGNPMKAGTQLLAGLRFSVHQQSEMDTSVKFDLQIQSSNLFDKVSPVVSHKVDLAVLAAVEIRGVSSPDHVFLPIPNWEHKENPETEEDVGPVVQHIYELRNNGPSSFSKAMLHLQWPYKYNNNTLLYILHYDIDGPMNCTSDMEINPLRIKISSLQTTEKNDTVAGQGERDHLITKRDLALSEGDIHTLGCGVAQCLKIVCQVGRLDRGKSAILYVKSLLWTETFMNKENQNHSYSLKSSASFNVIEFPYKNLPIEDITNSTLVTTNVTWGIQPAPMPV
T1 sequence (P18564 22-707 limits assumed): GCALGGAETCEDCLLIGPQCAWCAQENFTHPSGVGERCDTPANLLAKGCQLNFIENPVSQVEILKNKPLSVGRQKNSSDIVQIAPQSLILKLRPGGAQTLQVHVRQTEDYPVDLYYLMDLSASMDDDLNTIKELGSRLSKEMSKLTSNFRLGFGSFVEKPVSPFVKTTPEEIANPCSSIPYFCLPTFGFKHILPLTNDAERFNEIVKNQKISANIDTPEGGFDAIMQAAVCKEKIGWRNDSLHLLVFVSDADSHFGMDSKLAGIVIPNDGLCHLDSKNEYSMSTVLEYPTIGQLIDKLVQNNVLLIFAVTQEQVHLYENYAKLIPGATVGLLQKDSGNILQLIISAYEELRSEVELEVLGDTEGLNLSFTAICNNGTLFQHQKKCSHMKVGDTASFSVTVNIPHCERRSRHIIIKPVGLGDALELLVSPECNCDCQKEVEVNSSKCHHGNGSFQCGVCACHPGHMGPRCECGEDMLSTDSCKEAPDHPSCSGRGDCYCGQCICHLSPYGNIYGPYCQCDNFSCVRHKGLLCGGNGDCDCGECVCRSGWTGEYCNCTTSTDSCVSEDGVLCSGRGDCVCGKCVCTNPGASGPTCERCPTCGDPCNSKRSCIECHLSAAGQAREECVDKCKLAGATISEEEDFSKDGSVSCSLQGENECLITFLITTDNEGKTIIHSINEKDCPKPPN

Structure (SMILES)	pIC50
CN(C)C(=O)c1ccc(C(CC(=O)O)c2nc(CCCCc3ccc4c(n3)NCCC4)cs2)cc1F (single isomer, unassigned) [Example 131, 3-(4-(dimethylcarbamoyl)-3-fluorophenyl)-3-(4-(4-(5,6,7,8-tetrahydro-1,8-naphthyridin-2-yl)butyl)thiazol-2-yl)propanoic acid]	8.64
COc1ccc(C(CC(=O)O)c2nc(CCCCc3ccc4c(n3)NCCC4)cs2)cc1F (single isomer, unassigned) [Example 36, 3-(3-Fluoro-4-methoxyphenyl)-3-(4-(4-(5,6,7,8-tetrahydro-1,8-naphthyridin-2-yl)butyl)thiazol-2-yl)propanoic acid]	6.80
O=C(O)CC(c1cnc2ccccc2n1)n1ccc(CCCc2ccc3c(n2)NCCC3)n1 (racemic) [Example 28, (±)-3-(Quinoxalin-2-yl)-3-(3-(3-(5,6,7,8-tetrahydro-1,8-naphthyridin-2-yl)propyl)-1H-pyrazol-1-yl)propanoic acid]	5.26
CN(C)C(=O)c1ccc(C(CC(=O)O)c2nc(CCCCc3ccc4c(n3)NCCC4)cs2)cc1 (single isomer, unassigned) [Example 127, 3-(4-(dimethylcarbamoyl)phenyl)-3-(4-(4-(5,6,7,8-tetrahydro-1,8-naphthyridin-2-yl)butyl)thiazol-2-yl)propanoic acid]	7.22
Cc1cc(C)n(C(CC(=O)O)c2nc(CCCc3ccc4c(n3)NCCC4)cs2)n1 (single isomer, unassigned) [Example 162, 3-(3,5-dimethyl-1H-pyrazol-1-yl)-3-(4-(3-(5,6,7,8-tetrahydro-1,8-naphthyridin-2-yl)propyl)thiazol-2-yl)propanoic acid]	7.15
Cc1ncc(C(CC(=O)O)n2ccc(CCCc3ccc4c(n3)NCCCC4)n2)cn1 (single isomer, unassigned) [Example 97, 3-(2-methylpyrimidin-5-yl)-3-(3-(3-(6,7,8,9-tetrahydro-5H-pyrido[2,3-b]azepin-2-yl)propyl)-1H-pyrazol-1-yl)propanoic acid]	7.35
O=C(O)CC(c1cncc(N2CCOCC2)c1)n1ccc(CCCc2ccc3c(n2)NCCC3)n1 (single isomer, unassigned) [Example 68, 3-[5-(morpholin-4-yl)pyridin-3-yl]-3-{3-[3-(5,6,7,8-tetrahydro-1,8-naphthyridin-2-yl)propyl]-1H-pyrazol-1-yl}propanoic acid]	8.55
COc1ncc(C(CC(=O)O)n2ccc(CCCc3ccc4c(n3)NCCCC4)n2)cn1 (single isomer, unassigned) [Example 105]	6.33
COc1ncc(C(CC(=O)O)c2nc(CCCc3ccc4c(n3)NCCC4)cs2)cn1 (stereo not shown) [Example 145, 3-(2-methoxypyrimidin-5-yl)-3-(4-(3-(5,6,7,8-tetrahydro-1,8-naphthyridin-2-yl)propyl)thiazol-2-yl)propanoic acid]	8.35
COc1ccc(C(CC(=O)O)n2ccc(CCCc3ccc4c(n3)NCCC4)n2)nn1 (racemic) [Example 57, (±)-3-(6-Methoxypyridazin-3-yl)-3-(3-(3-(5,6,7,8-tetrahydro-1,8-naphthyridin-2-yl)propyl)-1H-pyrazol-1-yl)propanoic acid]	7.29
COc1ccc(C(CC(=O)O)c2cnn(CCCc3ccc4c(n3)NCCC4)c2)cn1 (racemic) [Example 7, (±)-3-(6-Methoxypyridin-3-yl)-3-(1-(3-(5,6,7,8-tetrahydro-1,8-naphthyridin-2-yl)propyl)-1H-pyrazol-4-yl)propanoic acid]	6.49
COc1ccc(C(CC(=O)O)c2nc(CCCc3ccc4c(n3)NCCC4)co2)cc1F (single isomer, unassigned) [Example 179, 3-(3-fluoro-4-methoxyphenyl)-3-(4-(3-(5,6,7,8-tetrahydro-1,8-naphthyridin-2-yl)propyl)oxazol-2-yl)propanoic acid]	7.18
COc1ccc(C(CC(=O)O)c2ncc(CCCCc3ccc4c(n3)NCCC4)n2C)cn1 (single isomer, unassigned) [Example 165, 3-(6-methoxypyridin-3-yl)-3-(1-methyl-5-(4-(5,6,7,8-tetrahydro-1,8-naphthyridin-2-yl)butyl)-1H-imidazol-2-yl)propanoic acid]	7.57

More lines, in order of rising pIC50, values ahead:

pIC50	Structure (SMILES)
5.30	O=C(NC(Cc1cnn(CCc2ccc3c(n2)NCCC3)c1)C(=O)O)OCc1ccccc1 (racemic) [Example 5, (±)-2-(((Benzyloxy)carbonyl)amino)-3-(1-(2-(5,6,7,8-tetrahydro-1,8-naphthyridin-2-yl)ethyl)-1H-pyrazol-4-yl)propanoic acid]
5.55	O=C(O)CC(c1cnc2nccnc2c1)n1ccc(CCCc2ccc3c(n2)NCCC3)n1 (racemic) [Example 33, (±)-3-(Pyrido[2,3-b]pyrazin-7-yl)-3-(3-(3-(5,6,7,8-tetrahydro-1,8-naphthyridin-2-yl)propyl)-1H-pyrazol-1-yl)propanoic acid]
6.74	COc1ccc(C(CC(=O)O)c2csc(CCCc3ccc4c(n3)NCCC4)n2)cc1F (single isomer, unassigned) [Example 152, 3-(3-fluoro-4-methoxyphenyl)-3-(2-(3-(5,6,7,8-tetrahydro-1,8-naphthyridin-2-yl)propyl)thiazol-4-yl)propanoic acid]
6.87	COc1ccc(C(CC(=O)O)c2cc(CCCc3ccc4c(n3)NCCC4)c[nH]2)cc1F (racemic) [Example 10, (±)-3-(3-Fluoro-4-methoxyphenyl)-3-(4-(3-(5,6,7,8-tetrahydro-1,8-naphthyridin-2-yl)propyl)-1H-pyrrol-2-yl)propanoic acid]
7.00	COc1ncc([C@H](CC(=O)O)n2ccc(CCC[C@H]3CCc4cccnc4N3)n2)cn1 [Example 89, (S)-3-(2-methoxypyrimidin-5-yl)-3-(3-(3-((S)-1,2,3,4-tetrahydro-1,8-naphthyridin-2-yl)propyl)-1H-pyrazol-1-yl)propanoic acid]
7.11	COc1ccc(C(CC(=O)O)c2nc(CCCCc3ccc4c(n3)NCCC4)cs2)cn1 (single isomer, unassigned) [Example 13, 3-(6-Methoxypyridin-3-yl)-3-(4-(4-(5,6,7,8-tetrahydro-1,8-naphthyridin-2-yl)butyl)thiazol-2-yl)propanoic acid]
7.33	COc1ccc(C(CC(=O)O)c2cc(CCCc3ccc4c(n3)NCCC4)[nH]n2)cc1F (stereo not shown) [Example 116, 3-(3-Fluoro-4-methoxyphenyl)-3-(5-(3-(5,6,7,8-tetrahydro-1,8-naphthyridin-2-yl)propyl)-1H-pyrazol-3-yl)propanoic acid]
7.52	COc1ncc(C(CC(=O)O)n2ccc(CCCc3ccc4c(n3)NCCCC4)n2)cn1 (racemic) [Example 103, (±)-3-(2-methoxypyrimidm-5-yl)-3-(3-(3-(6,7,8,9-tetrahydro-5H-pyrido| 2,3-6 |azepin-2-yl)propyl)-1H-pyrazol-1-yl)propanoic acid]
7.57	COc1ccc(C(CC(=O)O)c2nc(CCCC3CCc4cccnc4N3)cs2)cn1 (single isomer, unassigned) [Example 157, 3-(6-methoxypyridin-3-yl)-3-(4-(3-(1,2,3,4-tetrahydro-1,8-naphthyridin-2-yl)propyl)thiazol-2-yl)propanoic acid]
7.62	CN(C)C(=O)c1cncc(C(CC(=O)O)n2nccc2CCCc2ccc3c(n2)NCCC3)c1 (racemic) [Example 72, (±)-3-[5-(dimethylcarbamoyl)pyridin-3-yl]-3-{5-[3-(5,6,7,8-tetrahydro-1,8-naphthyridin-2-yl)propyl]-1H-pyrazol-1-yl}propanoic acid]
8.15	COc1ncc(C(CC(=O)O)c2nc(CCCCc3ccc4c(n3)NCCC4)cs2)cn1 (single isomer, unassigned) [Example 144, 3-(2-Methoxypyrimidin-5-yl)-3-(4-(4-(5,6,7,8-tetrahydro-1,8-naphthyridin-2-yl)butyl)thiazol-2-yl)propanoic acid]
8.19	COc1ccc(C(CC(=O)O)n2ccc(CCCc3ccc4c(n3)NCCCC4)n2)cn1 (racemic) [Example 100, (±)-3-(6-methoxypyridin-3-yl)-3-(3-(3-(6,7,8,9-tetrahydro-5H-pyrido[2,3-b]azepin-2-yl)propyl)-1H-pyrazol-1-yl)propanoic acid]
8.22	Cc1ncc(C(CC(=O)O)c2nc(CCCc3ccc4c(n3)NCCC4)cs2)cn1 (single isomer, unassigned) [Example 148, 3-(2-methylpyrimidin-5-yl)-3-(4-(3-(5,6,7,8-tetrahydro-1,8-naphthyridin-2-yl)propyl)thiazol-2-yl)propanoic acid]
8.37	CN(C)C(=O)c1ccc(C(CC(=O)O)c2nc(CCCCc3ccc4c(n3)NCCC4)cs2)cc1 (single isomer, unassigned) [Example 128, 3-(4-(dimethylcarbamoyl)phenyl)-3-(4-(4-(5,6,7,8-tetrahydro-1,8-naphthyridin-2-yl)butyl)thiazol-2-yl)propanoic acid]
8.38	O=C(O)C[C@@H](c1ccc(=O)n(Cc2ccccc2)c1)n1ccc(CCCc2ccc3c(n2)NCCC3)n1 [Example 109, (S)-3-(1-benzyl-6-oxo-1,6-dihydropyridin-3-yl)-3-(3-(3-(5,6,7,8-tetrahydro-1,8-naphthyridin-2-yl)propyl)-1H-pyrazol-1-yl)propanoic acid]

— patent US11884661B2, “3-substituted propionic acids as αV integrin inhibitors” (BRISTOL-MYERS SQUIBB COMPANY, priority 2016, dated 2024)
